Assay results taken from the NIST ThermoML archive (doi:10.1016/j.fluid.2017.12.010).

Assay: xn = mol fraction of the nth substance listed
Details: Liquid, Vibrating tube method

CCCCCCCCCCCC [dodecane] + CCCCCCCCCC
Details | mass density [kg/m3]
303.31 K, 1000 kPa, x2 = 0.2297 | 739
303.32 K, 5000 kPa, x2 = 0.2297 | 742
303.32 K, 10000 kPa, x2 = 0.2297 | 745
303.33 K, 20000 kPa, x2 = 0.2297 | 752
303.33 K, 30000 kPa, x2 = 0.2297 | 759
303.34 K, 40000 kPa, x2 = 0.2297 | 765
303.35 K, 100 kPa, x2 = 0.2297 | 738
303.35 K, 60000 kPa, x2 = 0.2297 | 775
303.35 K, 80000 kPa, x2 = 0.2297 | 785
303.35 K, 100000 kPa, x2 = 0.2297 | 794
303.39 K, 100 kPa, x2 = 0.4436 | 734
303.39 K, 1000 kPa, x2 = 0.4436 | 735
303.39 K, 5000 kPa, x2 = 0.4436 | 738
303.39 K, 10000 kPa, x2 = 0.4436 | 742
303.41 K, 20000 kPa, x2 = 0.4436 | 749
303.41 K, 40000 kPa, x2 = 0.4436 | 761
303.41 K, 80000 kPa, x2 = 0.4436 | 782
303.41 K, 99990 kPa, x2 = 0.4436 | 791
303.42 K, 30000 kPa, x2 = 0.4436 | 755
303.42 K, 60000 kPa, x2 = 0.4436 | 772
303.43 K, 100 kPa, x2 = 0.6433 | 730
303.43 K, 1000 kPa, x2 = 0.6433 | 731
303.43 K, 20000 kPa, x2 = 0.6433 | 745
303.43 K, 30000 kPa, x2 = 0.6433 | 752
303.43 K, 40000 kPa, x2 = 0.6433 | 758
303.43 K, 60000 kPa, x2 = 0.6433 | 769
303.43 K, 80000 kPa, x2 = 0.6433 | 779
303.43 K, 100000 kPa, x2 = 0.6433 | 788
303.44 K, 5000 kPa, x2 = 0.6433 | 734
303.44 K, 10000 kPa, x2 = 0.6433 | 738
303.45 K, 100 kPa, x2 = 0.7841 | 727
303.45 K, 10000 kPa, x2 = 0.7841 | 735
303.45 K, 20000 kPa, x2 = 0.7841 | 742
303.45 K, 30000 kPa, x2 = 0.7841 | 749
303.45 K, 40000 kPa, x2 = 0.7841 | 755
303.45 K, 60000 kPa, x2 = 0.7841 | 766
303.45 K, 80000 kPa, x2 = 0.7841 | 776
303.45 K, 100000 kPa, x2 = 0.7841 | 785
303.46 K, 1000 kPa, x2 = 0.7841 | 728
303.47 K, 5000 kPa, x2 = 0.7841 | 731
312.89 K, 100 kPa, x2 = 0 | 736
312.89 K, 1000 kPa, x2 = 0 | 737
312.9 K, 5000 kPa, x2 = 0 | 740
312.9 K, 10000 kPa, x2 = 0 | 744
312.9 K, 20000 kPa, x2 = 0 | 751
312.9 K, 30000 kPa, x2 = 0 | 757
312.9 K, 40000 kPa, x2 = 0 | 763
312.9 K, 50000 kPa, x2 = 0 | 769
312.9 K, 60000 kPa, x2 = 0 | 774
312.9 K, 70000 kPa, x2 = 0 | 780
312.9 K, 80000 kPa, x2 = 0 | 784
312.9 K, 90000 kPa, x2 = 0 | 789
312.9 K, 100000 kPa, x2 = 0 | 793
313.23 K, 100 kPa, x2 = 0.2297 | 732
313.24 K, 1000 kPa, x2 = 0.2297 | 732
313.24 K, 5000 kPa, x2 = 0.2297 | 736
313.24 K, 10000 kPa, x2 = 0.2297 | 740
313.24 K, 20000 kPa, x2 = 0.2297 | 747
313.24 K, 30000 kPa, x2 = 0.2297 | 753
313.24 K, 40000 kPa, x2 = 0.2297 | 760
313.24 K, 60000 kPa, x2 = 0.2297 | 771
313.25 K, 80000 kPa, x2 = 0.2297 | 781
313.25 K, 100000 kPa, x2 = 0.2297 | 790
313.3 K, 30000 kPa, x2 = 0.4436 | 750
313.3 K, 40000 kPa, x2 = 0.4436 | 756
313.3 K, 100000 kPa, x2 = 0.4436 | 787
313.31 K, 100 kPa, x2 = 0.4436 | 728
313.31 K, 1000 kPa, x2 = 0.4436 | 729
313.31 K, 10000 kPa, x2 = 0.4436 | 736
313.31 K, 20000 kPa, x2 = 0.4436 | 743
313.31 K, 60000 kPa, x2 = 0.4436 | 767
313.31 K, 80000 kPa, x2 = 0.4436 | 778
313.32 K, 5000 kPa, x2 = 0.4436 | 732
313.36 K, 100 kPa, x2 = 0.6433 | 724
313.36 K, 1000 kPa, x2 = 0.6433 | 725
313.36 K, 10000 kPa, x2 = 0.6433 | 732
313.36 K, 20000 kPa, x2 = 0.6433 | 740
313.37 K, 100 kPa, x2 = 0.7841 | 721
313.37 K, 1000 kPa, x2 = 0.7841 | 722
313.37 K, 5000 kPa, x2 = 0.6433 | 728
313.37 K, 5000 kPa, x2 = 0.7841 | 725
313.37 K, 10000 kPa, x2 = 0.7841 | 729
313.37 K, 30000 kPa, x2 = 0.6433 | 746
313.37 K, 40000 kPa, x2 = 0.6433 | 753
313.37 K, 40000 kPa, x2 = 0.7841 | 750
313.37 K, 60000 kPa, x2 = 0.7841 | 762
313.37 K, 80000 kPa, x2 = 0.7841 | 772
313.38 K, 20000 kPa, x2 = 0.7841 | 737
313.38 K, 30000 kPa, x2 = 0.7841 | 744
313.38 K, 60000 kPa, x2 = 0.6433 | 764
313.38 K, 80000 kPa, x2 = 0.6433 | 774
313.38 K, 100000 kPa, x2 = 0.6433 | 784
313.38 K, 100000 kPa, x2 = 0.7841 | 781
322.83 K, 100 kPa, x2 = 0 | 727
322.83 K, 1000 kPa, x2 = 0 | 728
322.83 K, 5000 kPa, x2 = 0 | 732
322.83 K, 10000 kPa, x2 = 0 | 736
322.83 K, 20000 kPa, x2 = 0 | 743
322.83 K, 30000 kPa, x2 = 0 | 750
322.83 K, 40000 kPa, x2 = 0 | 756
322.83 K, 50000 kPa, x2 = 0 | 762
322.83 K, 60000 kPa, x2 = 0 | 768
322.83 K, 70000 kPa, x2 = 0 | 773
322.83 K, 80000 kPa, x2 = 0 | 778
322.83 K, 90000 kPa, x2 = 0 | 783
322.83 K, 100000 kPa, x2 = 0 | 787
323.08 K, 100 kPa, x2 = 0.2297 | 723
323.08 K, 1000 kPa, x2 = 0.2297 | 724
323.08 K, 5000 kPa, x2 = 0.2297 | 727
323.08 K, 10000 kPa, x2 = 0.2297 | 731
323.08 K, 20000 kPa, x2 = 0.2297 | 739
323.08 K, 30000 kPa, x2 = 0.2297 | 746
323.08 K, 40000 kPa, x2 = 0.2297 | 752
323.09 K, 100 kPa, x2 = 0.4436 | 719
323.09 K, 60000 kPa, x2 = 0.2297 | 764
323.09 K, 80000 kPa, x2 = 0.2297 | 774
323.09 K, 100010 kPa, x2 = 0.2297 | 784
323.1 K, 1000 kPa, x2 = 0.4436 | 720
323.1 K, 5000 kPa, x2 = 0.4436 | 724
